Organism: Rattus norvegicus
Test: Open TG-GATES - Regimen: Daily Repeat
Assay type: toxicity, organism-based, Sprague-Dawley
Design: regimen Daily Repeat, gender Male, age 6 weeks
Conditions: in vivo, po, 0 mg/kg, route gavage, dose level Control; for APTT / Bas / Eos / Fbg / Hb / Ht / Lym / MCH / MCHC / MCV / Mono / Neu / PT / Plat / RBC / Ret / WBC: tissue Blood; for KIDNEY_L / KIDNEY_R / KIDNEY_TOTAL: tissue Kidney; for LIVER: tissue Liver; for A/G / ALP / ALT / AST / BUN / CRE / Ca / Cl / DBIL / GLC / IP / K / LDH / Na / PL / RALB / TBIL / TC / TG / TP / gamma-GTP: tissue Plasma

C=CCO [ALLYL ALCOHOL]
TERMINAL_BW (72 h, time 3 day): 237.2 g | APTT (72 h, time 3 day): 19.1 s | Bas (72 h, time 3 day): 0% | Eos (72 h, time 3 day): 1% | Fbg (72 h, time 3 day): 221.6 mg/dL | Hb (72 h, time 3 day): 13.4 g/dL | Ht (72 h, time 3 day): 39.6% | Lym (72 h, time 3 day): 79.4% | MCH (72 h, time 3 day): 21 pg | MCHC (72 h, time 3 day): 33.8% | MCV (72 h, time 3 day): 62.1 fL | Mono (72 h, time 3 day): 2.8% | Neu (72 h, time 3 day): 16.6% | PT (72 h, time 3 day): 11.7 s | Plat (72 h, time 3 day): 133.7 x10_4/uL | RBC (72 h, time 3 day): 638 x10_4/ul | Ret (72 h, time 3 day): 5.7% | WBC (72 h, time 3 day): 129.8 x10_2/uL | KIDNEY_L (72 h, time 3 day): 1 g | KIDNEY_R (72 h, time 3 day): 1 g | KIDNEY_TOTAL (72 h, time 3 day): 2 g | LIVER (72 h, time 3 day): 11.1 g | A/G (72 h, time 3 day): 1.6 | ALP (72 h, time 3 day): 952.4 IU/L | ALT (72 h, time 3 day): 38 IU/L | AST (72 h, time 3 day): 65.8 IU/L | BUN (72 h, time 3 day): 16.2 mg/dL | CRE (72 h, time 3 day): 0.4 mg/dL | Ca (72 h, time 3 day): 10.7 mg/dL | Cl (72 h, time 3 day): 103.4 meq/L | DBIL (72 h, time 3 day): 0.088 mg/dL | GLC (72 h, time 3 day): 225.8 mg/dL | IP (72 h, time 3 day): 6.1 mg/dL | K (72 h, time 3 day): 4 meq/L | LDH (72 h, time 3 day): 245.4 IU/L | Na (72 h, time 3 day): 140.8 meq/L | PL (72 h, time 3 day): 148.2 mg/dL | RALB (72 h, time 3 day): 3.4 g/dL | TBIL (72 h, time 3 day): 0.1 mg/dL | TC (72 h, time 3 day): 77.4 mg/dL | TG (72 h, time 3 day): 110.2 mg/dL | TP (72 h, time 3 day): 5.4 g/dL | gamma-GTP (72 h, time 3 day): 0.8 IU/L | TERMINAL_BW ([…], time 7 day): 272.9 g | TERMINAL_BW ([…], time 14 day): 319.8 g | TERMINAL_BW ([…], time 28 day): 385.1 g | APTT ([…], time 7 day): 20 s | Bas ([…], time 7 day): 0% | Eos ([…], time 7 day): 1% | Fbg ([…], time 7 day): 227.6 mg/dL | Hb ([…], time 7 day): 13.3 g/dL | Ht ([…], time 7 day): 38.8% | Lym ([…], time 7 day): 79.4% | MCH ([…], time 7 day): 20.9 pg | MCHC ([…], time 7 day): 34.4% | MCV ([…], time 7 day): 60.6 fL | Mono ([…], time 7 day): 3% | Neu ([…], time 7 day): 16.2% | PT ([…], time 7 day): 11.9 s | Plat ([…], time 7 day): 136 x10_4/uL | RBC ([…], time 7 day): 640.4 x10_4/ul | Ret ([…], time 7 day): 5% | WBC ([…], time 7 day): 119.1 x10_2/uL | APTT ([…], time 14 day): 19.8 s | Bas ([…], time 14 day): 0% | Eos ([…], time 14 day): 1% | Fbg ([…], time 14 day): 229 mg/dL | Hb ([…], time 14 day): 14.2 g/dL | Ht ([…], time 14 day): 41% | Lym ([…], time 14 day): 78.2% | MCH ([…], time 14 day): 20.2 pg | MCHC ([…], time 14 day): 34.6% | MCV ([…], time 14 day): 58.5 fL | Mono ([…], time 14 day): 2.8% | Neu ([…], time 14 day): 17.6% | PT ([…], time 14 day): 12 s | Plat ([…], time 14 day): 126.7 x10_4/uL | RBC ([…], time 14 day): 701.8 x10_4/ul | Ret ([…], time 14 day): 4.1% | WBC ([…], time 14 day): 144 x10_2/uL | APTT ([…], time 28 day): 20.9 s | Bas ([…], time 28 day): 0% | Eos ([…], time 28 day): 1% | Fbg ([…], time 28 day): 220.6 mg/dL | Hb ([…], time 28 day): 15.7 g/dL | Ht ([…], time 28 day): 45.2% | Lym ([…], time 28 day): 81.8% | MCH ([…], time 28 day): 19.6 pg | MCHC ([…], time 28 day): 34.7% | MCV ([…], time 28 day): 56.5 fL | Mono ([…], time 28 day): 2.4% | Neu ([…], time 28 day): 14.4% | PT ([…], time 28 day): 11.8 s | Plat ([…], time 28 day): 111.6 x10_4/uL | RBC ([…], time 28 day): 801.6 x10_4/ul | Ret ([…], time 28 day): 2.6% | WBC ([…], time 28 day): 94.8 x10_2/uL | KIDNEY_L ([…], time 7 day): 1.1 g | KIDNEY_R ([…], time 7 day): 1.1 g | KIDNEY_TOTAL ([…], time 7 day): 2.2 g | KIDNEY_L ([…], time 14 day): 1.2 g | KIDNEY_R ([…], time 14 day): 1.2 g | KIDNEY_TOTAL ([…], time 14 day): 2.4 g | KIDNEY_L ([…], time 28 day): 1.3 g | KIDNEY_R ([…], time 28 day): 1.3 g | KIDNEY_TOTAL ([…], time 28 day): 2.6 g | LIVER ([…], time 7 day): 13.1 g | LIVER ([…], time 14 day): 14.1 g | LIVER ([…], time 28 day): 16 g | A/G ([…], time 7 day): 1.5 | ALP ([…], time 7 day): 889.2 IU/L | ALT ([…], time 7 day): 34 IU/L | AST ([…], time 7 day): 60.8 IU/L | BUN ([…], time 7 day): 16.6 mg/dL | CRE ([…], time 7 day): 0.4 mg/dL | Ca ([…], time 7 day): 10.9 mg/dL | Cl ([…], time 7 day): 102 meq/L | DBIL ([…], time 7 day): 0.098 mg/dL | GLC ([…], time 7 day): 219.6 mg/dL | IP ([…], time 7 day): 6.9 mg/dL | K ([…], time 7 day): 3.9 meq/L | LDH ([…], time 7 day): 180.4 IU/L | Na ([…], time 7 day): 140.6 meq/L | PL ([…], time 7 day): 146 mg/dL | RALB ([…], time 7 day): 3.4 g/dL | TBIL ([…], time 7 day): 0.2 mg/dL | TC ([…], time 7 day): 74 mg/dL | TG ([…], time 7 day): 124.4 mg/dL | TP ([…], time 7 day): 5.6 g/dL | gamma-GTP ([…], time 7 day): 0.8 IU/L | A/G ([…], time 14 day): 1.4 | ALP ([…], time 14 day): 766.2 IU/L | ALT ([…], time 14 day): 34.2 IU/L | AST ([…], time 14 day): 61.2 IU/L | BUN ([…], time 14 day): 14.8 mg/dL | CRE ([…], time 14 day): 0.4 mg/dL | Ca ([…], time 14 day): 10.5 mg/dL | Cl ([…], time 14 day): 101.4 meq/L | DBIL ([…], time 14 day): 0.072 mg/dL | GLC ([…], time 14 day): 234 mg/dL | IP ([…], time 14 day): 6.9 mg/dL | K ([…], time 14 day): 3.7 meq/L | LDH ([…], time 14 day): 223.2 IU/L | Na ([…], time 14 day): 140.2 meq/L | PL ([…], time 14 day): 141.2 mg/dL | RALB ([…], time 14 day): 3.4 g/dL | TBIL ([…], time 14 day): 0.1 mg/dL | TC ([…], time 14 day): 68.8 mg/dL | TG ([…], time 14 day): 101 mg/dL | TP ([…], time 14 day): 5.8 g/dL | gamma-GTP ([…], time 14 day): 1.2 IU/L | A/G ([…], time 28 day): 1.3 | ALP ([…], time 28 day): 588.4 IU/L | ALT ([…], time 28 day): 33.6 IU/L | AST ([…], time 28 day): 59.2 IU/L | BUN ([…], time 28 day): 15.4 mg/dL | CRE ([…], time 28 day): 0.5 mg/dL | Ca ([…], time 28 day): 10.5 mg/dL | Cl ([…], time 28 day): 101.8 meq/L | DBIL ([…], time 28 day): 0.068 mg/dL | GLC ([…], time 28 day): 222.2 mg/dL | IP ([…], time 28 day): 6.1 mg/dL | K ([…], time 28 day): 3.4 meq/L | LDH ([…], time 28 day): 166.6 IU/L | Na ([…], time 28 day): 140.6 meq/L | PL ([…], time 28 day): 141.8 mg/dL | RALB ([…], time 28 day): 3.5 g/dL | TBIL ([…], time 28 day): 0.1 mg/dL | TC ([…], time 28 day): 71.2 mg/dL | TG ([…], time 28 day): 100.2 mg/dL | TP ([…], time 28 day): 6.2 g/dL | gamma-GTP ([…], time 28 day): 1 IU/L
